Source: publication PMC11855827, “High-Throughput Screening of Five Compound Libraries for Anthelmintic Activity and Toxicity Leads to the Discovery of Two Flavonoid Compounds” (International Journal of Molecular Sciences, 2025)
“And” between values parts separate entries of the source, which are not always exact repeats. Identical values can stand only once.

System: C. elegans
Conditions: Table S2, C. elegans SS assay, 110 μM, averages of 4 data points

Compound	Percentage of motility inhibition 0 h [%]	Percentage of motility inhibition 24 h
CC1=CC23C(=O)C(C=C4COC(C)(C)OC4C24OC(C)(C)OC14)C1C(CC3C)C1(C)C (stereo not drawn) [Ingenol-3,4,5,20-diacetonide]	1	9%
c1cn[nH]c1 [1H‐pyrazole]	0	21%
CN1CCN2c3ccccc3Cc3ccccc3C2C1.Cl (stereo not drawn) [Mianserin (hydrochloride)]	0	0%
CC(C)=CCCC(C(=O)O)C1CCC2(C)C3=C(CCC12C)C1(C)CCC(=O)C(C)(C)C1CC3 (stereo not drawn) [3-Dehydrotrametenolic acid]	17	37%
CN(C)[C@@H]1C(O)=C(C(N)=O)C(=O)[C@@]2(O)C(O)=C3C(=O)c4c(O)ccc(Cl)c4[C@@H](O)[C@H]3C[C@@H]12.Cl [Demeclocycline (hydrochloride)]	17	12%
CO[C@@]1(NC(=O)Cc2cccs2)C(=O)N2C(C(=O)[O-])=C(COC(N)=O)CS[C@@H]21.[Na+] [Cefoxitin (sodium)]	0	0%
CC[C@]1(O)C[C@H]2CN(CCc3c([nH]c4ccccc34)[C@@](C(=O)OC)(c3cc4c(cc3OC)N(C=O)[C@H]3[C@@](O)(C(=O)OC)[C@H](OC(C)=O)[C@]5(CC)C=CCN6CC[C@]43[C@@H]65)C2)C1.O=S(=O)(O)O [Vincristine (sulfate)]	0	0% and 7%
COc1cc(/C=C/C(=O)NCC(O)c2ccc(O)cc2)ccc1O (stereo not drawn) [N‐Feruloyloctopamine]	14	0%
COC(=O)C1=CO[C@@H](C)[C@H]2CN3CCc4c([nH]c5ccccc45)[C@@H]3C[C@H]12 [Ajmalicine]	0	1%
C[C@@H]1O[C@@H](O[C@H]2[C@H](Oc3cc(O)c4c(c3)O[C@H](c3ccc(O)c(O)c3)CC4=O)O[C@H](CO)[C@@H](O)[C@@H]2O)[C@H](O)[C@H](O)[C@H]1O [Neoeriocitrin]	6	13%
COc1ccc2c(c1O)-c1c(O)c(OC)cc3c1[C@H](C2)[N+](C)(C)CC3.[Cl-] [(+)‐Magnoflorine (chloride)]	0	0%
O=c1ccoc2cc(O)ccc12 [7‐Hydroxy‐4H‐chromen‐4‐one]	0	8%
Epimedin A	13	13%
CN1[C@H]2C[C@H](OC(=O)[C@H](CO)c3ccccc3)C[C@@H]1[C@@H](O)C2 [Anisodamine]	10	5%
O.O=C(O)c1cc(O)c(O)c(O)c1 [Gallic acid (hydrate)]	6	7%
COc1cc(/C=C/C(=O)N2CCC=CC2=O)cc(OC)c1OC [Piperlongumine]	0	0%
Cl.O=C(O)c1cn(-c2ccc(F)cc2)c2cc(N3CCNCC3)c(F)cc2c1=O [Sarafloxacin (hydrochloride)]	32	3%
CC(C)=C[C@H]1C[C@](C)(O)[C@@H]2[C@H]3CC[C@@H]4[C@@]5(C)CC[C@H](O[C@@H]6OC[C@H](O)[C@H](O[C@@H]7O[C@H](CO)[C@@H](O)[C@H](O)[C@H]7O)[C@H]6O[C@@H]6O[C@@H](CO)[C@H](O)[C@H]6O)C(C)(C)[C@@H]5CC[C@@]4(C)[C@@]34CO[C@@]2(C4)O1 [Bacopaside X]	9	35%
